Here are results for 11 molecules from ChEMBL document CHEMBL1150189, “Determination of cardenolides in hairy root cultures of Digitalis lanata by enzyme-linked immunosorbent assay” (J Nat Prod, 1990).

Molecules are shown by their SMILES. Some results are limits rather than exact numbers.

For the test, the species on record is Mus musculus. Put plainly: Binding affinity to mouse Monoclonal antibody DIG 64.2B.5 by ELISA relative to digoxin.
For `C[C@@H]1O[C@@H](O[C@H]2C[C@@H](O)[C@]3(CO)[C@H]4[C@H](O)C[C@]5(C)[C@@H](C6=CC(=O)OC6)CC[C@]5(O)[C@@H]4CC[C@]3(O)C2)[C@H](O)[C@H](O)[C@H]1O`, the Ratio IC50 was above 6e+06.

In the case of `CO[C@@H]1[C@@H](O)[C@H](O[C@H]2CC[C@@]3(C)[C@H](CC[C@@H]4[C@@H]3CC[C@]3(C)[C@@H](C5=CC(=O)OC5)[C@@H](O)C[C@]43O)C2)O[C@H](C)[C@@H]1O[C@@H]1O[C@H](CO)[C@@H](O)[C@H](O)[C@H]1O`, the Ratio IC50 came to 16000.

As for `C[C@H]1O[C@@H](O[C@H]2[C@@H](O)C[C@H](O[C@H]3[C@@H](O)C[C@H](O[C@H]4CC[C@@]5(C)[C@H](CC[C@@H]6[C@@H]5CC[C@]5(C)[C@@H](C7=CC(=O)OC7)[C@@H](O)C[C@]65O)C4)O[C@@H]3C)O[C@@H]2C)C[C@H](O)[C@@H]1O`, the Ratio IC50 was 46. The result for `C[C@H]1O[C@@H](O[C@H]2[C@@H](O)C[C@H](O[C@H]3[C@@H](O)C[C@H](O[C@H]4CC[C@@]5(C)[C@H](CC[C@@H]6[C@@H]5CC[C@]5(C)[C@@H](C7=CC(=O)OC7)CC[C@]65O)C4)O[C@@H]3C)O[C@@H]2C)C[C@H](O)[C@@H]1O` reads 2800; that for `C[C@]12CC[C@H](O)C[C@H]1CC[C@@H]1[C@@H]2CC[C@]2(C)[C@@H](C3=CC(=O)OC3)[C@@H](O)C[C@]12O`, above 540000; that for `C[C@]12CC[C@H](O)C[C@H]1CC[C@@H]1[C@@H]2C[C@@H](O)[C@]2(C)[C@@H](C3=CC(=O)OC3)CC[C@]12O`, 1.2. For the molecule `C[C@H]1O[C@@H](O[C@H]2CC[C@@]3(C)[C@H](CC[C@@H]4[C@@H]3C[C@@H](O)[C@]3(C)[C@@H](C5=CC(=O)OC5)CC[C@]43O)C2)C[C@H](O)[C@@H]1O[C@H]1C[C@H](O)[C@H](O[C@H]2C[C@H](O)[C@H](O[C@@H]3O[C@H](CO)[C@@H](O)[C@H](O)[C@H]3O)[C@@H](C)O2)[C@@H](C)O1`, the Ratio IC50 came out at 1.8. The value for `C[C@@H]1CC[C@@]2(OC1)O[C@H]1[C@@H](O)[C@H]3[C@@H]4CC[C@H]5C[C@@H](O[C@@H]6O[C@H](CO)[C@H](O[C@@H]7O[C@H](CO)C(O)[C@H](O[C@@H]8OC[C@@H](O)[C@H](O)[C@H]8O)[C@H]7O[C@@H]7O[C@H](CO)[C@H](O)[C@H](O[C@@H]8O[C@H](CO)[C@@H](O)[C@H](O)[C@H]8O)[C@H]7O)[C@H](O)[C@H]6O)[C@H](O)C[C@]5(C)[C@H]4CC[C@]3(C)[C@H]1[C@@H]2C` (stereo partly specified) was above 6e+06; that for `C[C@H]1OC(O)C[C@H](O)[C@@H]1O` (stereo partly specified) was above 1.2e+08. The value for `CC(=O)O[C@H]1C[C@H](O[C@H]2[C@@H](O)C[C@H](O[C@H]3[C@@H](O)C[C@H](O[C@H]4CC[C@@]5(C)[C@H](CC[C@@H]6[C@@H]5C[C@@H](O)[C@]5(C)[C@@H](C7=CC(=O)OC7)CC[C@]65O)C4)O[C@@H]3C)O[C@@H]2C)O[C@H](C)[C@H]1O[C@@H]1O[C@H](CO)[C@@H](O)[C@H](O)[C@H]1O` was 1.2; that for `C[C@]12CC[C@H](O)C[C@H]1CC[C@@H]1[C@@H]2CC[C@]2(C)[C@@H](C3=CC(=O)OC3)CC[C@]12O` was 23000.
